Assay results from patent US6355633B1, “Aryl sulfonic acids and derivatives as FSH antagonists” (American Home Products Corporation, priority 1999, dated 2002).

Each compound was assayed against T1, FSH receptor (Homo sapiens, UniProt P23945) (assay: FSH Receptor Radioligand Membrane Binding Standard Pharmacological Test Procedure). Settings: [125I]FSH binding to membranes of CHO cells stably transfected with the human FSH receptor.
T1 sequence (P23945 18-695): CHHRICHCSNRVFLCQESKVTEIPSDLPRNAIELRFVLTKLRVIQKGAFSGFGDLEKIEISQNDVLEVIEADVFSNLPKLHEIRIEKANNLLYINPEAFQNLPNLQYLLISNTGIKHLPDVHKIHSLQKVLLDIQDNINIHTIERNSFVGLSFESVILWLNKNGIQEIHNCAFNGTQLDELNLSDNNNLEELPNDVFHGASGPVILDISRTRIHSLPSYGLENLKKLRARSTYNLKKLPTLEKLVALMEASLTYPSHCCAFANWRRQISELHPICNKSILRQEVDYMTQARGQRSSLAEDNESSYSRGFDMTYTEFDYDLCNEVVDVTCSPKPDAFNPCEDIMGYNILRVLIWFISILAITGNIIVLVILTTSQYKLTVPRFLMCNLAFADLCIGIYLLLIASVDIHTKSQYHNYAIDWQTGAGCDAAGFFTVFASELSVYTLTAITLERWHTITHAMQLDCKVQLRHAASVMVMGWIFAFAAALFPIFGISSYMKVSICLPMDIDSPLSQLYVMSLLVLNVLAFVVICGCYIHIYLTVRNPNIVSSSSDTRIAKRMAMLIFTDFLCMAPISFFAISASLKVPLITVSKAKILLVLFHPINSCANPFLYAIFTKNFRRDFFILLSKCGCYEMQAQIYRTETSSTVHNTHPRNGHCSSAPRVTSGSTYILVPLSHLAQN
Set-up: expressed in transfected cells
Procedure, shortened: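 Membranes from CHO cells stably expressing human FSH receptor; compounds pre-incubated 15 min at room temperature, then [125I]FSH added (diluted to 200 pM before addition) for 2 h at room temperature in pH 7.2 Tris buffer with protease inhibitors and BSA. Bound radioactivity after filtration counted by gamma counter; non-specific binding defined with unlabelled human FSH.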
Compound “2,2′-[(E)-1,2-Ethenediyl]bis[5-[[4-(methylthio)-3-(4-morpholinylsulfonyl)benzoyl]amino]benzenesulfonic Acid] [Example 30b]” has an IC50 of 1200 nM.
For `COCCOCCOc1ccc(C(=O)Nc2ccc(/C=C/c3ccc(NC(=O)c4ccc(OCCOCCOC)c(S(=O)(=O)N5CCOCC5)c4)cc3S(=O)(=O)O)c(S(=O)(=O)O)c2)cc1S(=O)(=O)N1CCOCC1` [Example 30a, 2,2′-[(E)-1,2-Ethenediyl]bis[5-[[4-[2-(2-methoxyethoxy)ethoxy]-3-(4-morpholinylsulfonyl)benzoyl]amino]benzenesulfonic Acid]], the IC50 was 1600 nM.
Compound `CS(=O)(=O)c1ccc(C(=O)Nc2ccc(/C=C/c3ccc(NC(=O)c4ccc(S(C)(=O)=O)c([N+](=O)[O-])c4)cc3S(=O)(=O)O)c(S(=O)(=O)O)c2)cc1[N+](=O)[O-]` [Example 30c, 2.2′-[(E)-1,2-Ethenediyl]bis[5-[[(4-methylsulfonyl)-3-(nitro)-benzoyl]amino]benzenesulfonic Acid]] has an IC50 of 1600 nM.
Work on `CS(=O)(=O)c1ccc(C(=O)Nc2ccc(/C=C/c3ccc(NC(=O)c4ccc(S(C)(=O)=O)c(S(=O)(=O)N5CCOCC5)c4)cc3S(=O)(=O)O)c(S(=O)(=O)O)c2)cc1S(=O)(=O)N1CCOCC1` [Example 30d, 2,2′-[(E)-1,2-Ethenediyl]bis[5-[[4-(methylsulfonyl)-3-(4-morpholinylsulfonyl)benzoyl]amino]benzenesulfonic Acid]] yielded an IC50 of 1500 nM.
`CSc1ccc(C(=O)Nc2ccc(/C=C/c3ccc(NC(=O)c4ccc(S(C)(=O)=O)c([N+](=O)[O-])c4)cc3S(=O)(=O)O)c(S(=O)(=O)O)c2)cc1S(=O)(=O)N1CCOCC1` [Example 30e] gave an IC50 of 2500 nM.
Compound `COCCNS(=O)(=O)c1cc(C(=O)Nc2ccc(/C=C/c3ccc(NC(=O)c4ccc(S(C)(=O)=O)c([N+](=O)[O-])c4)cc3S(=O)(=O)O)c(S(=O)(=O)O)c2)ccc1OC` [Example 30f] has an IC50 of 1900 nM.
`COc1ccc(C(=O)Nc2ccc(/C=C/c3ccc(NC(=O)c4ccc(S(C)(=O)=O)cc4)cc3S(=O)(=O)O)c(S(=O)(=O)O)c2)cc1S(=O)(=O)N1CCOCC1` [Example 30g] gave an IC50 of 1600 nM.
For `COc1ccc(C(=O)Nc2ccc(/C=C/c3ccc(NC(=O)c4ccc(OC)c(S(=O)(=O)N5CCS(=O)(=O)CC5)c4)cc3S(=O)(=O)O)c(S(=O)(=O)O)c2)cc1S(=O)(=O)N1CCS(=O)(=O)CC1` [Example 30k, 2,2′-[(E)-1,2-Ethenediyl]bis[5-[[3-[(1,1-dioxido-4-thiomorpholinyl)sulfonyl]-4-methoxybenzoyl]amino]benzenesulfonic Acid]], the IC50 was 2000 nM.
With `COCCNS(=O)(=O)c1cc(C(=O)Nc2ccc(/C=C/c3ccc(NC(=O)c4ccc(OC)c(S(=O)(=O)NCCOC)c4)cc3S(=O)(=O)O)c(S(=O)(=O)O)c2)ccc1OC` [Example 30m, 2,2′-[(E)-1,2-Ethenediyl]bis[5-[[4-methoxy-3-[[(2-methoxyethyl)amino]sulfonyl]benzoyl]amino]benzenesulfonic Acid]] the IC50 was 2200 nM.
`CS(=O)(=O)c1ccc(C(=O)Nc2ccc(/C=C/c3ccc(NC(=O)c4ccc(S(C)(=O)=O)cc4)cc3S(=O)(=O)O)c(S(=O)(=O)O)c2)cc1` [Example 30q, 2,2′-[(E)-1,2-Ethenediyl]bis[5-[[4-(methylsulfonyl)benzoyl]amino]benzenesulfonic Acid]] gave an IC50 of 4000 nM.
`O=C(Nc1ccc(/C=C/c2ccc(NC(=O)c3ccc(OC4CCOCC4)c(S(=O)(=O)N4CCOCC4)c3)cc2S(=O)(=O)O)c(S(=O)(=O)O)c1)c1ccc(OC2CCOCC2)c(S(=O)(=O)N2CCOCC2)c1` [Example 30r, 2,2′-[(E)-1,2-Ethenediyl]bis[5-[[3-(4-morpholinylsulfonyl)-4-[(tetrahydro-2H-pyran-4-yl)oxy]benzoyl]amino]benzenesulfonic Acid]] gave an IC50 of 1100 nM.
Compound `COc1ccc(C(=O)Nc2ccc(/C=C/c3ccc(NC(=O)c4ccc(OC)c(S(=O)(=O)N5CCOCC5)c4)cc3S(=O)(=O)O)c(S(=O)(=O)O)c2)cc1S(=O)(=O)N1CCOCC1` [Example 30s, 2,2′-[(E)-1,2-Ethenediyl]bis[5-[[4-methoxy-3-(4-morpholinylsulfonyl)benzoyl]amino]benzenesulfonic Acid]] has an IC50 of 3000 nM.
With `COCCOc1ccc(C(=O)Nc2ccc(/C=C/c3ccc(NC(=O)c4ccc(OCCOC)c(S(=O)(=O)N5CCOCC5)c4)cc3S(=O)(=O)O)c(S(=O)(=O)O)c2)cc1S(=O)(=O)N1CCOCC1` [Example 30t, 2,2′-[(E)-1,2-Ethenediyl]bis[5-[[4-(2-methoxyethoxy)-3-(4-morpholinylsulfony)benzoyl]amino]benzenesulfonic Acid]] the IC50 was 1300 nM.
Compound `CCS(=O)(=O)c1ccc(C(=O)Nc2ccc(/C=C/c3ccc(NC(=O)c4ccc(S(=O)(=O)CC)cc4)cc3S(=O)(=O)O)c(S(=O)(=O)O)c2)cc1` [Example 32f, 2,2′-[(E)-1,2-Ethenediyl]bis[5-[[4-(ethylsulfonyl)benzoyl]amino]benzenesulfonic Acid]] has an IC50 of 2900 nM.
Work on `COc1ccc(C(=O)Nc2ccc(/C=C/c3ccc(NC(=O)c4ccc(OC)c(S(=O)(=O)N5CCSCC5)c4)cc3S(=O)(=O)O)c(S(=O)(=O)O)c2)cc1S(=O)(=O)N1CCSCC1` [Example 33d, 2,2′-[(E)-1,2-Ethenediyl]bis[5-[[4-methoxy-3-(4-thiomorpholinylsulfonyl)benzoyl]amino]benzenesulfonic Acid]] yielded an IC50 of 5200 nM.
`COc1ccc(C(=O)Nc2ccc(/C=C/c3ccc(NC(=O)c4ccc(OC)c(S(=O)(=O)N5CCCC5)c4)cc3S(=O)(=O)O)c(S(=O)(=O)O)c2)cc1S(=O)(=O)N1CCCC1` [Example 33e, 2,2′-[(E)-1,2-Ethenediyl]bis[5-[[4-methoxy-3-(1-pyrrolidinylsulfonyl)benzoyl]amino]benzenesulfonic Acid]] showed an IC50 of 4300 nM.
Work on `COc1ccc(C(=O)Nc2ccc(/C=C/c3ccc(NC(=O)c4ccc(OC)c(S(=O)(=O)N5CCN(C(C)=O)CC5)c4)cc3S(=O)(=O)O)c(S(=O)(=O)O)c2)cc1S(=O)(=O)N1CCN(C(C)=O)CC1` [Example 34a, 2,2′-[(E)-1,2-Ethenediyl]bis[5-[[3-[(4-acetyl-1-piperazinyl)sulfonyl]-4-methoxybenzoyl]amino]benzenesulfonic Acid]] yielded an IC50 of 3800 nM.
Compound `COc1ccc(C(=O)Nc2ccc(/C=C/c3ccc(NC(=O)c4ccc(OC)c(S(=O)(=O)N5CCN(C=O)CC5)c4)cc3S(=O)(=O)O)c(S(=O)(=O)O)c2)cc1S(=O)(=O)N1CCN(C=O)CC1` [Example 34b, 2,2′-[(E)-1,2-Ethenediyl]bis[5-[[3-[(4-formyl-1-piperazinyl)sulfonyl]-4-methoxybenzoyl]amino]benzenesulfonic Acid]] has an IC50 of 1600 nM.
Work on `COc1ccc(C(=O)Nc2ccc(CCc3ccc(NC(=O)c4ccc(S(C)(=O)=O)cc4)cc3S(=O)(=O)O)c(S(=O)(=O)O)c2)cc1S(=O)(=O)N1CCOCC1` [Example 43a, 5-[[4-Methoxy-3-(4-morpholinylsulfonyl)benzoyl]amino]-2-[2-[4-[[4-(methylsulfonyl)benzoyl]amino]-2-sulfophenyl]ethyl]benzenesulfonic Acid] yielded an IC50 of 2000 nM.
